Experimental data: US20250345440A1, “METAL-ORGANIC FRAMEWORK MATERIALS AND USES OF THE METAL-ORGANIC FRAMEWORK MATERIALS” (MOF Science, LLC, priority 2024, published 2025)

Assay: Second study: NAD in tissues, oral (pegylated)NAD-Mg-GA vs injectable NAD
Format: in vivo
Conditions: group 2 (IP injectable NAD) vs group 1 (oral (pegylated)NAD-Mg-GA), healthy rats

More NAD levels in the heart compared to group 1: 11%
SMILES: NC(=O)c1ccc[n+]([C@@H]2O[C@H](COP(=O)([O-])OP(=O)(O)OC[C@H]3O[C@@H](n4cnc5c(N)ncnc54)[C@H](O)[C@@H]3O)[C@@H](O)[C@H]2O)c1 [injectable NAD, Nicotinamide Adenine Dinucleotide]
